{"source": "paper PMC7179312", "about": "(Antimicrobial Agents and Chemotherapy, 2020)", "key": {"[1]": {"test_system": "P. aeruginosa PAM1154 carrying pUCP24 vector (PAM4175)", "assay": "MIC, CLSI broth microdilution", "format": "cell-based", "settings": "Pseudomonas aeruginosa, drug alone", "text": "The effects of KPC mutations on resistance to various antibiotics were investigated. For these studies, pUCP24 plasmids carrying wild-type and mutant blaKPC-2 genes as well as the pUCP24 vector were transformed into PAM1154, an efflux-deficient strain of Pseudomonas aeruginosa. In this host, the effect of β-lactamases on β-lactam MIC is amplified due to the slowed uptake of β-lactams across the low-permeability outer membrane without interference by efflux of either β-lactams or BLIs. Consequently, this host allows detection of β-lactamase activity (as an MIC increase) of low-catalytic-efficiency enzymes that rely heavily on the low permeability of the outer membrane. Using the strain that lacks efflux pumps ensures no interference from efflux in interpreting results. We next evaluated the steady-state protein expression levels in bacterial cells. […] The observed discrepancy with our results could be attributed to the difference in either the expression vector or host bacteria.\n(§1) For microbiological studies, wild-type blaKPC-2 and its mutant variants were cloned into the shuttle vector pUCP24. Resulting plasmids were transformed in the efflux-deficient strain of P. aeruginosa PAM1154 using selection on 15 μg/ml of gentamicin. Using a strain of P. aeruginosa as opposed to E. coli as a host for various cloned genes was based on the following consideration. As well documented elsewhere ([41]), P. aeruginosa has a low-permeability outer membrane; consequently, the effect of β-lactamases on MIC is amplified in P. aeruginosa compared to that in E. coli due to the slowed uptake of β-lactams. Thus, this host is appropriate to detect β-lactamase activity (as an MIC increase) of low-catalytic-efficiency enzymes that rely heavily on low permeability of the outer membrane. […] MICs were determined using the Clinical and Laboratory Standards Institute (CLSI) broth microdilution method as described in CLSI document M07-A11 ([42]). Potentiation of antibiotic activity by various BLIs in bacterial strains carrying wild-type (WT) and mutant KPC-2 genes was performed using standard checkerboard methodology ([43]). BLI potency was defined as PV50 (PV, potentiation value). PV50 is the minimal concentration of a BLI that is required to reduce the antibiotic MIC to the middle of the MIC range (E50) where the highest MIC is the MIC for a KPC-producing strain with no inhibitor added and the lowest MIC is the MIC for the vector-only strain, corresponding to the complete inhibition of KPC. E50 is calculated as the square root of the product of the antibiotic MICs for the KPC-producing and the vector-only strains."}, "[2]": {"test_system": "P. aeruginosa PAM1154 carrying KPC-2::D179Y (PAM4639)", "assay": "Checkerboard potentiation of antibiotic activity by BLIs", "format": "cell-based, Pseudomonas aeruginosa", "settings": "for increase of PV50 vs wild-type KPC-2: D179Y; for PV50: PAM4639 KPC-2::D179Y", "text": "(§2) BLI potency was defined as PV50 (PV, potentiation value) of antibiotic potentiation. PV50 is the concentration of a BLI that is required to reduce the antibiotic MIC to the middle of the MIC range where the highest MIC is the MIC for a KPC-producing strain with no inhibitor added and the lowest MIC is the MIC for the vector-alone strain, which corresponds to complete inhibition of KPC. As a given MIC is directly related to the β-lactamase activity, PV50 might be considered the concentration of a BLI that is required to achieve half-effect of inhibition of β-lactamase activity (in whole cells) to hydrolyze an antibiotic of interest. […] However, the accurate determination of PV50 requires the MIC range to be relatively wide.\nas §1, with “Potentiation of antibiotic activity by various BLIs in bacterial strains carrying wild-type (WT) and mutant KPC-2 genes was performed using standard checkerboard methodology ([43]).” left out\n(§3) […]\n(§4) […]"}, "[3]": {"test_system": "P. aeruginosa PAM1154 carrying KPC-2::L169P (PAM4751)", "assay": "Checkerboard potentiation of antibiotic activity by BLIs", "format": "cell-based, Pseudomonas aeruginosa", "settings": "for PV50: PAM4751 KPC-2::L169P", "text": "as §2\nas §1, with “Potentiation of antibiotic activity by various BLIs in bacterial strains carrying wild-type (WT) and mutant KPC-2 genes was performed using standard checkerboard methodology ([43]).” left out\nas §3, §4"}, "[4]": {"test_system": "P. aeruginosa PAM1154 carrying wild-type KPC-2 (PAM4135)", "assay": "Checkerboard potentiation of antibiotic activity by BLIs", "format": "cell-based, Pseudomonas aeruginosa", "settings": "PAM4135 KPC-2", "text": "as §2\nas §1, with “Potentiation of antibiotic activity by various BLIs in bacterial strains carrying wild-type (WT) and mutant KPC-2 genes was performed using standard checkerboard methodology ([43]).” left out\nas §3, §4"}, "KPC-2": {"target": "T1, KPC-2 (Klebsiella pneumoniae, UniProt Q9F663)", "T1 construct": "6xHis (C); made in house; host or cells: E. coli BL21(DE3) pLys, pET28a", "T1 sequence (Q9F663 25-293 limits assumed)": "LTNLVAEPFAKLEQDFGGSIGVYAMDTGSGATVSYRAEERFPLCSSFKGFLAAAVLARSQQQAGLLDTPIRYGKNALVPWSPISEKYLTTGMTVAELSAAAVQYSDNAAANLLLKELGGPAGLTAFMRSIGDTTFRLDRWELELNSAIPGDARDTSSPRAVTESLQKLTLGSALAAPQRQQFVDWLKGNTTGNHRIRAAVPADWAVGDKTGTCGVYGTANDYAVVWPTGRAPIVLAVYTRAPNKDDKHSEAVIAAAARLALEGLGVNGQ", "assay": "Inactivation kinetics (k2/K, k−2, Kd), nitrocefin reporter substrate method", "format": "biochemical", "settings": "NCF hydrolysis, 37°C", "procedure": "Inactivation kinetic parameters were determined by reporter substrate method for the slow tight binding inhibitor kinetic scheme ([45]). Protein was quickly mixed with 100 μM nitrocefin and various concentrations of BLI in reaction buffer, and absorbance at 490 nm was measured immediately every 2 s for 600 s on a SpectraMax plate reader (Molecular Devices, San Jose, CA) at 37°C. Resulting progression curves of OD490 versus time at various BLI concentrations were imported into Prism software (GraphPad, San Diego, CA), and pseudo-first-order rate constants (kobs) were calculated using the following equation: P=Vs×(1-e^-kobs^×^t)/kobs where Vs is enzyme nitrocefin cleavage rate in the absence of BLI. kobs values calculated at various vaborbactam concentrations were fitted in the following equation: kobs=k−2+k2/K×[I]/{1+[NCF]/Km(NCF)} where k2/K is the inactivation constant, [I] is inhibitor concentration, [NCF] is nitrocefin concentration, and Km(NCF) is the Michaelis constant of nitrocefin for KPC-2."}, "KPC-2 D179Y": {"target": "T2, KPC-2 D179Y (Klebsiella pneumoniae, UniProt Q9F663, D178Y)", "T2 construct": "6xHis (C); made in house; host or cells: E. coli BL21(DE3) pLys, pET28a", "T2 sequence (Q9F663 25-293 D178Y)": "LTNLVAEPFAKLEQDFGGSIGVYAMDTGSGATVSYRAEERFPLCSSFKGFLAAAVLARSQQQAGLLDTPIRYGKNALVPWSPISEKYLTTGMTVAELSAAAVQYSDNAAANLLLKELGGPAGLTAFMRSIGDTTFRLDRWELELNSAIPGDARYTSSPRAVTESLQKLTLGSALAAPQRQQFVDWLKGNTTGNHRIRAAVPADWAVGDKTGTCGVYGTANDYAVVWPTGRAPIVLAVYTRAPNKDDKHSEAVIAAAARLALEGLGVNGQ", "settings": "D179Y substitution in KPC-2; cited from earlier work"}}}
{"molecule": "NC(=O)[C@@H]1CC[C@@H]2CN1C(=O)N2OS(=O)(=O)O", "note": "[Avibactam, avibactam]", "values": [{"measurement": "MIC", "setting": "[1]", "value": 128, "unit": "µg/mL"}, {"measurement": "increase of PV50 vs wild-type KPC-2", "setting": "[2]; cefepime", "value": 16, "unit": "fold"}, {"measurement": "increase of PV50 vs wild-type KPC-2", "setting": "[2]; ceftazidime", "value": 32, "unit": "fold"}, {"measurement": "increase of PV50 vs wild-type KPC-2", "setting": "[2]; piperacillin", "value": 4, "unit": "fold"}, {"measurement": "PV50", "setting": "[2]; potentiation of cefepime", "value": 4, "unit": "µg/mL"}, {"measurement": "PV50", "setting": "[2]; potentiation of ceftazidime", "value": 4, "unit": "µg/mL"}, {"measurement": "PV50", "setting": "[2]; potentiation of piperacillin", "value": 1, "unit": "µg/mL"}, {"measurement": "increase of PV50 vs wild-type KPC-2", "setting": "[3]; L169P, cefepime", "value": 4, "unit": "fold"}, {"measurement": "PV50", "setting": "[3]; potentiation of cefepime", "value": 1, "unit": "µg/mL"}, {"measurement": "PV50", "setting": "[3]; potentiation of ceftazidime", "value": 2, "unit": "µg/mL"}, {"measurement": "PV50", "setting": "[3]; potentiation of piperacillin", "value": 2, "unit": "µg/mL"}, {"measurement": "PV50", "setting": "[4]; potentiation of cefepime", "value": 0.25, "unit": "µg/mL"}, {"measurement": "PV50", "setting": "[4]; potentiation of ceftazidime", "value": 0.125, "unit": "µg/mL"}, {"measurement": "k−2", "setting": "KPC-2", "value": "3.3 ± 0.1 × 10^−4 s^−1"}, {"measurement": "decrease in the inactivation constant k2/K", "setting": "KPC-2 D179Y", "value": "70,000 fold"}]}
